Counter-ions that a name gives are not always drawn. Like-named read-outs stand apart in the source and are kept apart here.
Columns and labels:
[1] = test system: tetrabenazine-induced depression; experiment: Tetrabenazine Induced Depression (exploratory behaviour); format: in vivo; settings: Mus musculus, read-out: % Mice Protected
Procedure: The compounds of this invention are useful as antidepressant agents in warm-blooded animals as verified by the following test. The antidepressant properties of these compounds were tested by measuring their ability to counteract depression induced in animals by the administration of tetrabenazine methanesulfonate. Each test compound was administered orally (P.O.) or intraperitoneally (I.P.) to 10 mice at a dose of 25 mg/kg of body weight. Thirty minutes later, tetrabenazine methanesulfonate was administered intraperitoneally to each mouse at a dose of 39 mg/kg of body weight, which dose is known to depress markedly the exploratory behaviour of normal mice. Thirty minutes later the mice were tested for their exploratory behaviour as described by E. Greenblatt and A. C. Osterberg, Toxicology and Applied Pharmacology, 7, 566-578 (1965).

[2] = target: T1, [^3 H]-imipramine binding to human platelet membranes (Homo sapiens, UniProt P31645); experiment: Platelet Imipramine Binding: inhibition of [^3 H]-imipramine binding to human platelet membranes; settings: 50 μl of 50 μM compound stock + 200 μl membrane/[^3 H]imipramine mixture; 60 minutes at 0° C.; 10 μM desmethylimipramine = 0% binding
T1 construct: from tissue; host or cells: human platelets (sonicated, washed membranes)
Procedure: The activity of the compounds of this invention as antidepressant agents was further verified in the following test which measures the ability of a test compound to inhibit [^3 H]-imipramine binding to human platelet membranes.
Human platelet concentrates were diluted 1:20 with antiprotease containing buffer of the following composition:
0.005N potassium chloride
3 mN ethylenediaminetetraacetic acid
1 mN ethyleneglycol-bis-(β-aminoethyl ether)-N,N'-tetraacetic acid
This buffer was kept at pH 6.8 to prevent platelet release and aggregation.
The diluted platelets were centrifuged at 2500 g and then resuspended in 50 volumes of the same buffer. The cells were then ruptured with a Branson sonicator while the suspension was maintained in an ice bath. The ruptured cells were then centrifuged at 18,000 g, resuspended in fresh buffer and recentrifuged at 18,000 g. These membranes were diluted with the above antiprotease buffer which had been adjusted to pH 7.4 and to a concentration of 3.0 mg/ml.
The test compounds were dissolved in dimethylsulfoxide at a concentration of 50 mM and then diluted 1:10 in either water, 0.1M hydrochloric acid or 0.1M sodium hydroxide. They were then diluted 1:100 in buffer to 50 μM, and 50 μl of this stock solution was placed in triplicate test tubes. The tubes were cooled to 0° C. and 200 μl of the following mixture were added:
100 μl of 3 mg/ml membrane in buffer
50 μl of 15 nM[^3 H]imipramine in buffer
The tubes were incubated for 60 minutes at 0° C. Controls contain either buffer alone (100%) of 10 μM of final desmethylimipramine (DMI) (0%).
The samples were diluted with 5 ml of buffer [0.12M-sodium chloride, 0.05M-tris buffer, 0.005M-potassium chloride (pH 7.4)], vacuum filtered and washed twice with 5 ml of buffer. Radioactivity was measured in a liquid scintillation counter and the degree of binding was calculated.

[3] = test system: tetrabenazine-induced ptosis; experiment: Tetrabenazine Induced Ptosis (inhibition of ptosis); format: in vivo; settings: Mus musculus, read-out: % Mice Responding
Procedure: The antidepressant activity of the compounds of this invention was further established in the following test. Inhibition of tetrabenazine-induced ptosis is observed concomitantly with the inhibition of tetrabenazine-induced depression. Ptosis is defined as more than 75% closure of palpebral aperture induced in animals by the administration of tetrabenazine methanesulfonate. The compounds were administered orally (P.O.) or intraperitoneally (I.P.) at 25 mg/kg to groups of 10 mice. Thirty minutes later, tetrabenazine methanesulfonate was administered intraperitoneally to each mouse at a dose of 39 mg/kg. Thirty minutes after the injection of tetrabenazine, the mice were placed on an observation disc and examined for 10 seconds for inhibition of ptosis. […]

[4] = test system: stress induced depressed ("coping") behavior; experiment: Stress Induced Depressed Behavior Test; format: in vivo; settings: rats, intraperitoneally at 5-20 mg/kg; warm (44.5° C.) surface for 15 minutes; high ratio = active
Procedure: The compounds of this invention are active as antistress agents in warm-blooded animals as evidenced by their results when tested in the Stress Induced Depressed Behavior Test. In this test, rats were confined on a warm (44.5° C.), but aversive, surface for 15 minutes. After 5-6 minutes, control rats began to show episodes of depressed ("coping") behavior where they remained flat and immobile for short to long periods of time. The onset and total duration of this behavior was timed. A ratio of onset/duration was calculated. The test compounds were administered intraperitoneally at 5-20 mg/kg of body weight. Active compounds prolong the time of onset and shorten the duration time resulting in high ratios.

T1 sequence (P31645 whole entry): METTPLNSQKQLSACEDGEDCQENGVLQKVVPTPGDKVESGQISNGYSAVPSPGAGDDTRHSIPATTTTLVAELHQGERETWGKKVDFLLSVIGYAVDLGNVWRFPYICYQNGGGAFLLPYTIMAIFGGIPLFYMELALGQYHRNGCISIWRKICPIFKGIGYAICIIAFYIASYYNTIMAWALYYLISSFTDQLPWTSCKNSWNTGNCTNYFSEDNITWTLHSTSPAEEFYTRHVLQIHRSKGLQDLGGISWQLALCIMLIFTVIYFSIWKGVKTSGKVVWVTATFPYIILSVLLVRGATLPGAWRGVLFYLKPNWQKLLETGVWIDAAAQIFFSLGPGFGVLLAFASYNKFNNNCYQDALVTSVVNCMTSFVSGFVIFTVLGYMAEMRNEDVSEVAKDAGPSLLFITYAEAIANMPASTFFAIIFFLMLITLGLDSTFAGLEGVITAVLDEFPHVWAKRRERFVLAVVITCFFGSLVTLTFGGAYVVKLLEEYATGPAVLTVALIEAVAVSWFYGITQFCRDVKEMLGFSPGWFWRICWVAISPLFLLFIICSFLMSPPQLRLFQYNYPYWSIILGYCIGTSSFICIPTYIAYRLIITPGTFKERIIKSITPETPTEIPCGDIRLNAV

Compound | responders at 25 mg/kg ([1]; ip) | inhibition at 10 µM [2] | responders at 25 mg/kg ([3]; po) | responders at 25 mg/kg ([3]; ip) | responders at 25 mg/kg ([1]; po) | Ratio onset/duration [4] | responders at 25 mg/kg ([1]; po, P.O., 25 mg/kg, 10 mice, tetrabenazine methanesulfonate 39 mg/kg I.P.) | responders at 25 mg/kg ([3]; po, P.O., 25 mg/kg, responders: 75% or greater opening of palpebral aperture)
Cc1ccc([C@@]23CN(C)C[C@@H]2[C@@H]2C=C[C@H]3C2)cc1 (relative stereo) [2,3,3a,4,7,7a-Hexahydro-2-methyl-3a-(4-methylphenyl)-4,7-methano-1H-isoindole maleate (1:1)] | 80% | 98% | 90% |  |  |  |  | 
CN1C[C@@H]2[C@@H]3C=C[C@@H](C3)[C@]2(c2cccc(C(F)(F)F)c2)C1 (relative stereo) [2,3,3a,4,7,7a-Hexahydro-2-methyl-3a-[3-(trifluoromethyl)phenyl]-4,7-methano-1H-isoindole fumarate] | 70% | 91% |  | 100% |  |  |  | 
COc1cccc([C@@]23CN(C)C[C@@H]2[C@@H]2C=C[C@H]3C2)c1 (relative stereo) [2,3,3a,4,7,7a-Hexahydro-3a-(3-methoxyphenyl)-2-methyl-4,7-methano-1H-isoindole maleate (1:1)] |  | 86% | 60% |  | 40% |  |  | 
Cc1ccc([C@@]23CNC[C@@H]2[C@@H]2C=C[C@H]3C2)cc1 (relative stereo) [2,3,3a,4,7,7a-Hexahydro-3a-(4-methylphenyl)-4,7-methano-1H-isoindole maleate (1:1)] |  | 94% |  | 60% |  |  |  | 
CN1C[C@@H]2[C@@H]3C=C[C@@H](C3)[C@]2(c2cccc(O)c2)C1 (relative stereo) [3-(1,2,3,4,7,7a-Hexahydro-2-methyl-4,7-methano-3aH-isoindol-3a-yl)phenol] |  | 86% | 100% |  | 60% |  |  | 
Clc1ccc([C@@]23CNC[C@@H]2[C@@H]2C=C[C@H]3C2)cc1 (relative stereo) [3-a-(4-Chlorophenyl)-2,3,3a,4,7,7a-hexahydro-4,7-methano-1H-isoindole fumarate] | 60% | 98% | 80% |  |  |  |  | 
CCN1C[C@@H]2C3CCC(CC3)[C@]2(c2ccc(Cl)c(Cl)c2)C1 (relative stereo) [3a-(3,4-Dichlorophenyl)-2-ethyloctahydro-4,7-ethano-1H-isoindole fumarate (1:1)] |  | 89% |  | 100% | 50% | 66 |  | 
CN1C[C@@H]2C3CCC(CC3)[C@]2(c2ccc(Cl)c(Cl)c2)C1 (relative stereo) [3a-(3,4-Dichlorophenyl)octahydro-2-methyl-4,7-ethano-1H-isoindole fumarate (1:1)] |  | 94% |  | 90% | 50% | 83 |  | 
CN1C[C@@H]2[C@@H]3CC[C@@H](C3)[C@]2(c2ccc(Cl)c(Cl)c2)C1 (relative stereo) [3a-(3,4-Dichlorophenyl)octahydro-2-methyl-4,7-methano-1H-isoindole hydrochloride] | 60% | 93% |  | 100% |  | 59 |  | 
Clc1ccc([C@@]23CNC[C@@H]2[C@@H]2CC[C@H]3C2)cc1Cl (relative stereo) [3a-(3,4-Dichlorophenyl)octahydro-4,7-methano-1H-isoindole hydrochloride] |  | 96% |  | 100% | 40% | 76 |  | 
CN1C[C@@H]2C3CCC(CC3)[C@]2(c2ccc(F)c(F)c2)C1 (relative stereo) [3a-(3,4-Difluorophenyl)octahydro-2-methyl-4,7-ethano-1H-isoindole fumarate (1:1)] |  | 100% |  |  |  |  |  | 
CN1C[C@@H]2[C@@H]3CC[C@@H](C3)[C@]2(c2ccc(F)c(F)c2)C1 (relative stereo) [3a-(3,4-Difluorophenyl)octahydro-2-methyl-4,7-methano-1H-isoindole fumarate (1:1)] | 50% | 95% |  | 70% |  |  |  | 
CN1C[C@@H]2[C@@H]3C=C[C@@H](C3)[C@]2(c2cccc(Cl)c2)C1 (relative stereo) [3a-(3-Chlorophenyl)2,3,3a,4,7,7a-hexahydro-2-methyl-4,7-methano-1H-isoindole fumarate (1:1)] | 60% | 86% |  | 100% |  | 13 |  | 
C[N+]1(C)C[C@@H]2[C@@H]3CC[C@@H](C3)[C@]2(c2ccc(N=[N+]=[N-])cc2)C1 (relative stereo) [3a-(4-Azidophenyl)octahydro-2,2-dimethyl-4,7-methano-1H-isoindolium iodide] |  | 88% |  |  |  |  | 30% | 100%
CN1C[C@@H]2[C@@H]3CC[C@@H](C3)[C@]2(c2ccc(Cl)cc2)C1 (relative stereo) [3a-(4-Chlorophenyl)octahydro-2-methyl-4,7-methano-1H-isoindole fumarate (1:1)] | 60% | 91% |  | 90% |  | 20 |  | 
CN1C[C@@H]2[C@@H]3CC[C@@H](C3)[C@]2(c2ccc(N)cc2)C1 (relative stereo) [4-(1,2,3,4,5,6,7,7a-Octahydro-2-methyl-4,7-methano-3aH-isoindol-3a-yl)benzenamine fumarate (1:1)] | 50% | 80% |  | 100% |  |  |  | 
CN1C[C@@H]2[C@@H]3C=C[C@@H](C3)[C@]2(c2ccc(N)cc2)C1 (relative stereo) [4-(1,2,3,4,7,7a-Hexahydro-2-methyl-4,7-methano-3aH-isoindol-3a-yl)benzenamine fumarate (1:2)] |  |  |  | 100% | 70% |  |  | 
CN1C[C@@H]2[C@@H]3CC[C@@H](C3)[C@]2(c2ccc([N+](=O)[O-])cc2)C1 (relative stereo) [Octahydro-2-methyl-3a-(4-nitrophenyl)-4,7-methano-1H-isoindole fumarate (1:1)] | 30% | 66% |  | 70% |  |  |  | 
c1ccc([C@@]23CNC[C@@H]2[C@@H]2CC[C@H]3C2)cc1 (relative stereo) [Octahydro-3a-phenyl-4,7-methano-1H-isoindole fumarate] | 50% | 98% |  | 50% |  |  |  | 

Reference: patent US4529736A, “3a-(substituted phenyl)-2,3,3a,4,7,7a-hexahydro[or 3a-(substituted-phenyl)octahydro]-4,7-alkano-1H-isoindoles for treating depression in warm-blooded animals” (American Cyanamid Company, priority 1983, dated 1985)
